Measured values published in patent US11680070B2, “Thieno[2,3-c]pyridazin-4(1H)-one derivative and application thereof” (MEDSHINE DISCOVERY INC., priority 2018, dated 2023).
pIC50: −log10 of the molar value.

How the values were obtained:
[1] = target: human acetyl-CoA carboxylase 2 (hACC2) (Homo sapiens, UniProt O00763); assay: In vitro ACC enzyme inhibition (ADP luminescence), hACC2; type: biochemical; conditions: human ACC2 enzyme; 15 min pre-incubation, 1 hour reaction at room temperature
Method: (§1) The IC50 value was determined to evaluate the ability of the test compounds to inhibit acetyl-CoA carboxylase (ACC).
(§2) Protein: human acetyl-CoA carboxylase 1 (hACC1) and human acetyl-CoA carboxylase 2 (hACC2).
(§3) Cofactor: acetyl coenzyme A, ATP
(§4) Activator: potassium citrate
(§5) 1. 1 time of the enzyme/substrate/cofactor was added to the wells of the well plate.
(§6) 2. According to Acoustic technology, the solutions of the compounds in DMSO were added to the above enzyme mixture and the mixture was pre-incubated for 15 minutes.
(§7) 3. ATP was added to initiate the reaction and the mixture was shaken until thoroughly mixed.
(§8) 4. The mixture was incubated for 1 hour at room temperature.
(§9) 5. After quenching the reaction, the incubation continued for 40 minutes.
(§10) 6. After adding the detection reagents, the mixture was incubated for 30 minutes.
(§11) 8. Data analysis: based on the standard curve of ADP, the luminescence was converted into ADP product concentration and the enzyme activity was calculated. Graphpad Prism software was used to fit the curve to obtain the IC50 value.

[2] = target: human acetyl-CoA carboxylase 1 (hACC1) (Homo sapiens, UniProt Q13085); assay: In vitro ACC enzyme inhibition (ADP luminescence), hACC1; type: biochemical; conditions: human ACC1 enzyme; 15 min pre-incubation, 1 hour reaction at room temperature
Method: as §1, §2, §3, §4, §5, §6, §7, §8, §9, §10, §11

[3] = system: NASH mouse model induced by HFD+CCl4; assay: In vivo pharmacodynamic study in NASH mouse model induced by HFD+CCl4; conditions: HFD+CCl4 mice; oral gavage QD Day 0-27; WX004B 0.5, 1, 3 mg/kg; reference I-181 3 mg/kg
Excerpt: The objective of this research is to study the effect of the compound on improving NASH and liver fibrosis in HFD+CCl4 mouse model, with 1-181 as the reference compound.
1-181 is an Acetyl-CoA carboxylase inhibitor and is currently undergoing a phase II clinical study on non-alcoholic fatty liver disease (NAFLD). The HFD+CCl4 mouse model used in this study is an animal model simulating human non-alcoholic fatty liver disease evolving into NASH, high-fat diet causes the fat accumulation and steatosis in liver cells; CCl4 (intraperitoneal injection, twice a week) simulates the “second hit” of liver injury.
The modeling for this experiment included two steps of high-fat feed and CCl4 induction. Firstly, the mice were fed with high-fat feed to induce non-alcoholic fatty liver, and mice with body weight >38 g were selected. The mice were continuously fed with high-fat feed, and simultaneously intraperitoneally injected with 25% CCl4, […], twice a week, for a total of four weeks. The day of starting CCl4 administration was set as day 0, and the time of starting CCl4 administration was set as hour 0. On the day of starting CCl4 administration, the intragastric administration was started, and the administration volume of each group was 5 mL/kg, once a day for 4 weeks (28 days). […]

[4] = Pharmacokinetics in C57BL/6 mice (iv and oral); type: in vivo; conditions: mouse, male C57BL/6 mice, plasma; for AUC(0-t) / clearance / half-life: iv 2.0 mg/kg, oral 10 mg/kg (route not given); for half-life: read-out: Half-life T1/2 (converted); for bioavailability: oral 10 mg/kg vs iv 2.0 mg/kg, read-out: Bioavailability F
Method: Testing the pharmacokinetics characteristics of the compounds in C57BL/6 mice
C57BL/6 mice (male, 18-30 g, 7-9 weeks, Shanghai Lingchang Biotechnology Co., Ltd.)
The clear solution of the test compounds (0.5 mg/mL in 10% DMSO, 10% polyethylene glycol stearate, 80% water) was injected via tail vein into 4 male C57BL/6 mice (overnight fasted, 7-9 weeks), at a dose of 2.0 mg/kg. The suspensions or clear solutions of the test compounds (1 mg/mL in 10% PEG400, 90% (0.5% methylcellulose+0.2% Tween 80)) were administrated by oral gavage to 4 male C57BL/6 mice (overnight fasted, 7-9 weeks), at a dose of 10 mg/kg.
Two mice were set in each group and subjected to blood sampling alternatively, 4 to 5 time points per mouse. At 0.0833h (IV group only), 0.25 h, 0.5 h, 1.0 h, 2.0 h, 4.0 h, 6.0 h, 8.0 h, and 24 h after the intravenous or oral administration, about 30 μL of blood was collected by saphenous vein puncture and added into an anticoagulation tube with EDTA-K2, and the plasma was isolated by centrifugation. The drug plasma concentration was determined by LC-MS/MS, and WinNonlin™ Version 6.3 (Pharsight, Mountain View, Calif.) pharmacokinetic software was used to calculate relevant pharmacokinetic parameters using the non-compartmental model linear logarithmic trapezoidal method.

Sequence of human acetyl-CoA carboxylase 2 (hACC2) (O00763 whole entry): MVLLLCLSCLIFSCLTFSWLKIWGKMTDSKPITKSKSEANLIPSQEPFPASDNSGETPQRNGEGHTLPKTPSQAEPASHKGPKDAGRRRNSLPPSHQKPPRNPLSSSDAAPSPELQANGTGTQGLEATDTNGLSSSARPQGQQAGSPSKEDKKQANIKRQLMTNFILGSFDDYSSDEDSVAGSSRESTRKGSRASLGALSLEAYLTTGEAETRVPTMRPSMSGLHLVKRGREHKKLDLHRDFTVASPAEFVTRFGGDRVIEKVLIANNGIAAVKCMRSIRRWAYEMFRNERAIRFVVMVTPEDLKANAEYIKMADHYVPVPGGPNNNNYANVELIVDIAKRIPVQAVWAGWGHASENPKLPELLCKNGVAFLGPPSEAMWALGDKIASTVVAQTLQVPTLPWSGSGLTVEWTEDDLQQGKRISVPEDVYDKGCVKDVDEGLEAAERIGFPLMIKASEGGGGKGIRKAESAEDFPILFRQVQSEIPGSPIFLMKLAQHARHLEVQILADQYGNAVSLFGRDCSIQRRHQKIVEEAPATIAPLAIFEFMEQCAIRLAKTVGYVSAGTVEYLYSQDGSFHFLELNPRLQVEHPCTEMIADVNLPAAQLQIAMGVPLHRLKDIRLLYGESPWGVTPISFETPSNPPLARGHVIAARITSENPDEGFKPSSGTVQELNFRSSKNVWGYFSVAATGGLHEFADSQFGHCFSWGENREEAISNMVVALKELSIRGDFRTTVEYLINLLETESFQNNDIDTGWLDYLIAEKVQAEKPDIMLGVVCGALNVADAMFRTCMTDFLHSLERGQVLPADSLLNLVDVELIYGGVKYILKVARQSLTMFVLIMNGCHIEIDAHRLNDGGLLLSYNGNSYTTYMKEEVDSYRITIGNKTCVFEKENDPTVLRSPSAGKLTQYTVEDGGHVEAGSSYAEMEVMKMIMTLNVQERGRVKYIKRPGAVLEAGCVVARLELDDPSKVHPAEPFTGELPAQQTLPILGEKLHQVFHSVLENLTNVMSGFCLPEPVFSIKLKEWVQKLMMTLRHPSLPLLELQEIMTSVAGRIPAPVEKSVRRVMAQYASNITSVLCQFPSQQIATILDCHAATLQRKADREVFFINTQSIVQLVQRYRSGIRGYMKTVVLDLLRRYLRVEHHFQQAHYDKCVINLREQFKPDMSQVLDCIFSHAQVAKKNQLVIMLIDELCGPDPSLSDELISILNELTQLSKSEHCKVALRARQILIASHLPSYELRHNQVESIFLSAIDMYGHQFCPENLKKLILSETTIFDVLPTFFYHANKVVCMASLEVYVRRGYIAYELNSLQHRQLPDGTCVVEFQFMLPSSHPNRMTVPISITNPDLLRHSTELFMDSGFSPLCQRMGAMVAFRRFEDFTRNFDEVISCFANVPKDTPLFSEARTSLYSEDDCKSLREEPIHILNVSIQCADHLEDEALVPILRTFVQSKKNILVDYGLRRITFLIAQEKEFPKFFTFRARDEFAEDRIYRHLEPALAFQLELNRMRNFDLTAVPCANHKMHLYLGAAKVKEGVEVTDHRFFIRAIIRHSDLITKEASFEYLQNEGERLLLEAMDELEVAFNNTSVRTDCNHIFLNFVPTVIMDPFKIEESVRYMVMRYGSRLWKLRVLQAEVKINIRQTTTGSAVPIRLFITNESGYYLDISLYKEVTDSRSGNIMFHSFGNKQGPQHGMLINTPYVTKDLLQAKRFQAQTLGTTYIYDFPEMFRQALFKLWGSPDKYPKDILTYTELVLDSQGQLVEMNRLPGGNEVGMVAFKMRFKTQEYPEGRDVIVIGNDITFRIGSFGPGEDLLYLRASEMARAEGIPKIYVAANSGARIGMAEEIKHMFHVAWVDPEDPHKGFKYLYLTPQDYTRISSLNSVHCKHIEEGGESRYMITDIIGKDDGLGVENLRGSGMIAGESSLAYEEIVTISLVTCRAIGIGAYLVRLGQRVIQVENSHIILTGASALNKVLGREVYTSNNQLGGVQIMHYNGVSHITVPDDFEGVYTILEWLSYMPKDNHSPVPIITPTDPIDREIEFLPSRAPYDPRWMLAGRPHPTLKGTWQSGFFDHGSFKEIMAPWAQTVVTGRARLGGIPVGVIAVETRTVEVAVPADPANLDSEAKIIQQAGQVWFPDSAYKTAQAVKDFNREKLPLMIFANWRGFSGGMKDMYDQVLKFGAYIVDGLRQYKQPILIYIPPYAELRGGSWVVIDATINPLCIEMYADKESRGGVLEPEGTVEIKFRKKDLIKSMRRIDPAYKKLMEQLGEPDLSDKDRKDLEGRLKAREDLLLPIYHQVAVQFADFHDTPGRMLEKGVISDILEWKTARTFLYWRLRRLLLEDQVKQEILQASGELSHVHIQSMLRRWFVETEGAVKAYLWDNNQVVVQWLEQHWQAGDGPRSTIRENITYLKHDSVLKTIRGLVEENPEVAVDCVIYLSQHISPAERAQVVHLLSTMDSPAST

| Compound | pIC50 [1] | pIC50 [2] | other results |
| --- | --- | --- | --- |
| COc1ccccc1C(Cn1nc(CC(=O)O)c(=O)c2c(C)c(-c3ncco3)sc21)OC1CCOCC1 (single isomer, unassigned) [WX003B] | 8.47 | 7.96 |  |
| COc1ccccc1[C@H](Cn1nc(C(C)(C)C(=O)O)c(=O)c2c(C)c(-c3ncco3)sc21)OC1CCOCC1 [WX004B] |  |  | Efficacy in NAS (anti-NASH effect) [3]: the same efficacy in both NAS and fibrosis as the reference compound at a higher dose; Efficacy in fibrosis (anti-fibrosis effect) [3]: the same efficacy in both NAS and fibrosis as the reference compound at a higher dose; AUC(0-t) [4]: 7.21 µM·h |
| COc1ccccc1[C@H](Cn1nc(C(F)(F)C(=O)O)c(=O)c2c(C)c(-c3ncco3)sc21)OC1CCOCC1 [WX009B] | 7.96 | 8.25 | clearance [4]: 92.1 mL/min/kg; half-life [4]: 36.6 min; bioavailability [4]: 1.26%; AUC(0-t) [4]: 0.04 µM·h |
| COc1ccccc1C(Cn1nc(C2(C(=O)O)CCNCC2)c(=O)c2c(C)c(-c3ncco3)sc21)OC1CCOCC1 (stereo not drawn) [WX010] | 7.15 | 7.08 |  |
| COc1ccccc1[C@H](Cn1nc(C2(C(=O)O)CCCCC2)c(=O)c2c(C)c(-c3ncco3)sc21)OC1CCOCC1 [WX007B] | 7.90 | 8.04 |  |
| COc1ccccc1C(Cn1nc(C2(C(=O)O)CCCC2)c(=O)c2c(C)c(-c3ncco3)sc21)OC1CCOCC1 (single isomer, unassigned) [WX001B] | 8.10 | 8.31 |  |
| COc1ccc(F)cc1[C@H](Cn1nc(C(C)(C)C(=O)O)c(=O)c2c(C)c(-c3ncco3)sc21)OC1CCOCC1 [WX016B] | 8.32 | 7.95 |  |
| COc1ccccc1[C@H](Cn1nc(C2(C(=O)O)CCOCC2)c(=O)c2c(C)c(-c3ncco3)sc21)OC1CCOCC1 [WX008B] | 7.86 | 8.28 | clearance [4]: 51.9 mL/min/kg; half-life [4]: 36 min; bioavailability [4]: 5.86%; AUC(0-t) [4]: 0.304 µM·h |

More lines, main results first:

| pIC50 [1] | pIC50 [2] | Compound | other results |
| --- | --- | --- | --- |
| 7.66 | 7.69 | COc1ccccc1C(Cn1nc(C2(C(=O)O)CCC2)c(=O)c2c(C)c(-c3ncco3)sc21)OC1CCOCC1 (stereo not drawn) [WX006] |  |
| 8.15 | 7.69 | COC(=O)N1CCC(OC(Cn2nc(C(C)(C)C(=O)O)c(=O)c3c(C)c(-c4ncco4)sc32)c2ccccc2OC)CC1 (racemic) [WX015] |  |
| 8.14 | 7.59 | COc1ccccc1C(Cn1nc(C(C)(C)C(=O)O)c(=O)c2c(C)c(-c3ncco3)sc21)OC1CCN(C(=O)OC(C)(C)C)CC1 (stereo not drawn) [WX014] |  |
| 8.06 | 7.27 | COc1ccccc1C(Cn1nc(CC(=O)O)c(=O)c2c(C)c(-c3ncco3)sc21)OC1CCOCC1 (stereo not drawn) [WX002] |  |
| 7.96 | 7.59 | COc1ccccc1C(Cn1nc(C(C)(C)C(=O)O)c(=O)c2c(C)c(-c3ncco3)sc21)OC1CCN(C(C)=O)CC1 (racemic) [WX011] |  |
| 8.24 | 7.85 | COc1ccccc1C(Cn1nc(C(C)(C)C(=O)O)c(=O)c2c(C)c(-c3ncco3)sc21)OC1CCN(S(C)(=O)=O)CC1 (racemic) [WX012] |  |
| 7.35 | 7.33 | COc1ccccc1C(Cn1nc(C2(C(=O)O)CC2)c(=O)c2c(C)c(-c3ncco3)sc21)OC1CCOCC1 (stereo not drawn) [WX005] |  |
